These results are taken from US20210353590A1 (priority 2020, published 2021).

In brackets after ≈: the same amount, converted by molar mass.

The nature of one data set: Pharmacokinetic analysis. Conditions: rat. As for the experimental part:
The photoperiod of 12 h was maintained. […] 120 male rats were randomly divided into 30 groups of 4 animals each corresponding to the time points of blood collection. […] Rats were fasted (Approximately 4 h) before administration of drug. On the other hand, AND at the dose of 10-mg/kg was administered intravenously (i.v.) for comparative studies. Plasma concentration data was analyzed and computed for pharmacokinetic parameters. The following pharmacokinetic parameters were assessed: ke (h), t½ (h), Cmax (μg/ml), AUClast (h.μg/ml), AUCinf (h.μg/ml), MRT (h), CLTotal (L/h), Vd (L) and F%.

For data set [1] the following is noted: after 2 h, simulated intestinal fluid pH 7.2, 37±2° C., 50 rpm, 100 mg AND or equivalent.
Description: The temperature of SIF was maintained at 37±2° C. At specified time intervals, 2 ml of SIF was taken and replaced with identical volume. Subsequently, all the samples were filtered through 0.22 μm membrane filter and assayed for drug content at 225 nm.
Data set [2] in a line: Solubility analysis by saturated solution method. Conditions: 37±1° C., 24 hrs, 100 rpm.
Description: After that, suspension was filtered and 0.1 ml of the filtrate was diluted with water up to 1 ml. The contents in the aliquot were measured by HPLC method (Sajeeb BK, 2015). All measurements were carried out in triplicate (n=3).

In “Pharmacokinetic analysis” (Oral, 100 mg/kg), `C=C1CC[C@@H]2[C@](C)(CO)[C@H](O)CC[C@@]2(C)[C@@H]1C/C=C1/C(=O)OC[C@H]1O` [Andrographolide] came in with an AUC inf of 1845.58 ± 305.77 µg·h/mL, an AUC last of 1223.6 ± 143.09 µg·h/mL, a CLTotal of 0.055 ± 0.008 L/h and a Cmax of 239.6 ± 75.37 µg/mL. In “Pharmacokinetic analysis” (Oral, 100 mg/kg), this molecule returned a Vd of 0.468 ± 0.060 L, a t1/2 of 5.92 ± 0.21 h and a tmax of 2 h. For the same molecule, the “F (bioavailability)” value in “Pharmacokinetic analysis” (Oral, 100 mg/kg, versus AND i.v. 10 mg/kg) was found to be 15.87±3.84%. Also, in “Pharmacokinetic analysis” (i.v., 10 mg/kg), the AUC inf is 891.08 ± 179.75 µg·h/mL, the AUC last is 801.14 ± 181.07 µg·h/mL, the CLTotal came out at 0.011 ± 0.002 L/h and the MRT worked out at 1.11 ± 0.04 h. In “Pharmacokinetic analysis” (i.v., 10 mg/kg), this molecule came in with a Vd of 0.013 ± 0.003 L and a t1/2 of 0.859 ± 0.031 h. For the same molecule, the MRT in the data set “Pharmacokinetic analysis” (in vivo, po, 100 mg/kg) is recorded as 1.49 ± 0.0.085 h. Moreover, the release in data set [1] is recorded as 27.89±1.32%. In data set [2], the “solubility in aqueous phase” value amounted to 6.39 ± 0.47 µg/mL (≈ 18.2 µM).

Usually Cmax stands for the highest concentration seen after dosing. A word on the MRT: it is the average time that molecules of a dose stay in the body.
